Common to all, as to format: cell-based
Data set [1] is described as follows: Cell viability assay (CCK-8). To be noted: human; HEK293 cells, CCK-8, compound at 100 μM, 48 h incubation; read-out: Cell Viability (%) (N = 3). On the procedure: (§1) The viability of HEK293 cells was determined by a CCK-8 assay according to the established protocol. Briefly, 5 × 10^3 cells/well HEK293 cells were cultured in 96-well plates at 37 °C under an atmosphere of 5% CO2 for 24 h and then treated with the tested compounds. After 48 h of incubation, CCK-8 reagent (20 μL) was added into each well and continuously incubated for 2 h at 37 °C. Absorbance at a wavelength of 450 nm was measured by a microplate reader, which was further used to calculate the cell viability. All the experiments were performed in triplicate.

For the next data set, the system named is NF-κB pathway. The data set can be described thus: NF-κB inhibitory (immunosuppressive) activity, luciferase reporter assay in LPS-induced HEK293/NF-κB-Luc cells. To be noted: for inhibition at 100 µM / IC50: Homo sapiens; for inhibition at 100 µM: HEK293, 24 h, read-out: NF-κB Inhibitory Rates (%) (N = 3); for IC50: read-out: IC50 NF-κB inhibition. The protocol:
The NF-κB inhibitory activities were measured using the HEK293/NF-κB-Luc cells, which were generated as described previously. Briefly, HEK293 cells were co-transfected with a luciferase reporter plasmid, which contained an NF-κB binding site and pcDNA3.1, using Lipofectamine 2000 at a concentration of 10:1. The HEK293/ NF-κB-Luc cells were plated in 48-well plates and cultured in DMEM supplemented with 10% fetal bovine serum (FBS) for 16 h. Then, the cells were treated with the tested compounds, followed by stimulation with 1 μg/mL of LPS for 24 h. The cells were rinsed twice with phosphate-buffered saline (PBS, pH 7.4) and lysed with passive lysis buffer. Then, the inhibitory effects on NF-κB were analyzed using the luciferase assay system according to the manufacturer’s instructions. All the experiments were performed in triplicate.
For orientation: Reporter assays use an easily measured gene product as a stand-in for the process of interest.

The test system of another data set is HEK293 cells. As to the kind of experiment: Cell viability assay (CCK-8). The conditions noted are these: for influence on the cell viability: CCK-8, at a concentration of 100 μM. On the procedure:
as §1

The mark [2] stands for this setting: HEK293/NF-κB-Luc cells induced by LPS (1 μg/mL, 24 h), compound at 100 μM.
[3] abbreviates: HEK293/NF-κB-Luc cells induced by LPS.

Entries after “also recorded” stand apart in the source; their conditions may differ. Where only a bound is given, the exact number is not on record here.

One may read the viability as a read-out of living cells in per cent, often relative to untreated cells. What is called IC50 is the midpoint of a concentration-inhibition curve.

With `CC(=O)OCC12[C@H](OC(C)=O)[C@H](OC(C)=O)[C@@H]3[C@@H](O)[C@@]14O[C@@]3(C)COC(=O)c1cccnc1CCC(C)(O)C(=O)O[C@@H]([C@H](OC(=O)c1ccoc1)[C@@H]2OC(C)=O)[C@]4(C)O` (stereo partly drawn) [Compound 4, 2β-furanoyloxy-1β,7β,8β,11-tetraacetoxy-4α,5α-dihydroxy-3α,15-[2′-methyl-2′-hydroxy-4′-(3′′-carboxy-2′′ -pyridyl)butanoic acid] dicarbolactone dihydro-β-agarofuran], in data set [1], the viability at 48 h, 100 µM is 101 ± 3.58%. The inhibition at 100 µM with NF-κB pathway (setting [2]) amounted to 7.27 ± 2.28%.
Regarding `CC(=O)OCC12[C@H](OC(C)=O)[C@H](OC(C)=O)[C@@H]3[C@@H](O)[C@@]14O[C@@]3(C)COC(=O)c1cccnc1CCC(C)(O)C(=O)O[C@@H]([C@H](OC(=O)c1ccccc1)[C@@H]2OC(C)=O)[C@]4(C)O` (stereo partly drawn) [Compound 5, 2β-benzoyloxy-1β,7β,8β,11-tetraacetoxy-4α,5α-dihydroxy-3α,15-[2′-methyl-2′-hydroxy-4′-(3′′-carboxy-2′′-pyridyl)butanoic acid] dicarbolactone dihydro-β-agarofuran], the viability at 48 h, 100 µM in data set [1] was determined as 93.8 ± 2.2%. Further, in the data set with HEK293 cells, the “influence on the cell viability” value is on record as “no influence on the cell viability; also recorded: no effects on the cell viability”. Besides, the inhibition at 100 µM with NF-κB pathway (setting [2]) was greater than 50%. For the same compound, the IC50 in the data set on NF-κB pathway (setting [3]) was found to be 8.75 µM.
Take `CC(=O)OCC12C(OC(C)=O)C(=O)C3C(OC(C)=O)C14OC3(C)COC(=O)c1cccnc1CCC(C)(OC(=O)c1ccoc1)C(=O)OC(C(OC(C)=O)C2OC(C)=O)C4(C)O` (stereo not drawn) [Compound 9, 1β,2β,5α,8β,11-pentaacetoxy-4α-droxy-7-oxo-3α,15-[2′-methyl-2′-(3-furoyloxy)-4′-(3′′-carboxy-2′′-pyridyl)butanoic acid] dicarbolactone dihydro-β-agarofuran]: in data set [1], the viability at 48 h, 100 µM is 99.5 ± 5.71%. Also, in the data set on NF-κB pathway (setting [2]), the inhibition at 100 µM came out at 37.4 ± 1.99%.
Turning to `CC(=O)OCC12[C@H](OC(C)=O)C(=O)[C@@H]3[C@@H](OC(C)=O)[C@@]14O[C@@]3(C)COC(=O)c1cccnc1CCC(C)(OC(=O)c1ccccc1)C(=O)O[C@@H]([C@H](OC(C)=O)[C@@H]2OC(C)=O)[C@]4(C)O` (stereo partly drawn) [Compound 10, 1β,2β,5α,8β,11-pentaacetoxy-4α-droxy-7-oxo-3α,15-[2′-methyl-2′-(3-benzoyloxy)-4′-(3′′-carboxy-2′′-pyridyl)butanoic acid] dicarbolactone dihydro-β-agarofuran], the viability at 48 h, 100 µM in data set [1] amounted to 102.8 ± 0.89%. The inhibition at 100 µM with NF-κB pathway (setting [2]) was 21.7 ± 4.42%.
Turning to `CC(=O)OC[C@]12[C@H](OC(C)=O)[C@H](OC(C)=O)[C@@H]3[C@@H](OC(C)=O)[C@@]14O[C@@]3(C)COC(=O)c1cccnc1CCC(C)(O)C(=O)O[C@@H]([C@H](O)[C@@H]2OC(C)=O)[C@@]4(C)O` (stereo partly drawn) [Compound 11, tripfordine A], in data set [1], the viability at 48 h, 100 µM was 102 ± 3.66%. The “influence on the cell viability” value in the data set with HEK293 cells is recorded as “no influence on the cell viability; also recorded: no effects on the cell viability”. Further, the inhibition at 100 µM in the data set with NF-κB pathway (setting [2]) was greater than 50%. Besides, the IC50 in the data set on NF-κB pathway (setting [3]) was found to be 0.74 µM.
For `CC(=O)OCC12[C@H](OC(C)=O)[C@H](OC(C)=O)[C@@H]3[C@@H](OC(C)=O)[C@@]14O[C@@]3(C)COC(=O)c1cccnc1CCC(C)C(=O)O[C@@H]([C@H](O)[C@@H]2OC(C)=O)[C@]4(C)O` (stereo partly drawn) [Compound 12, wilforjine], the viability at 48 h, 100 µM in data set [1] came to 93.5 ± 2.76%. In addition, in the data set with NF-κB pathway (setting [2]), the inhibition at 100 µM is 23 ± 3.43%.
For `CC(=O)OCC12[C@H](OC(C)=O)C(=O)[C@@H]3[C@@H](OC(C)=O)[C@@]14O[C@@]3(C)COC(=O)c1cccnc1CCC(C)C(=O)O[C@@H]([C@H](OC(C)=O)[C@@H]2OC(C)=O)[C@]4(C)O` (stereo partly drawn) [Compound 13, evonimine], in that order: 100 ± 6.4% and 26.5 ± 5.99%.
For `CC(=O)OCC12[C@H](OC(C)=O)[C@H](OC(C)=O)[C@@H]3[C@@H](OC(C)=O)[C@@]14O[C@@]3(C)COC(=O)c1cccnc1CCC(C)(OC(=O)c1ccccc1)C(=O)O[C@@H]([C@H](OC(C)=O)[C@@H]2OC(C)=O)[C@]4(C)O` (stereo partly drawn) [Compound 15, wilfornine A], in that order: 110 ± 5.83% and 8.73 ± 2.07%.
For `CC(=O)OC[C@]12[C@H](OC(C)=O)[C@H](OC(C)=O)[C@@H]3[C@@H](OC(C)=O)[C@@]14O[C@@]3(C)COC(=O)c1cccnc1CCC(C)C(=O)O[C@@H]([C@H](OC(=O)c1ccccc1)[C@@H]2OC(C)=O)[C@]4(C)O` (stereo partly drawn) [Compound 16, wilforine], the viability at 48 h, 100 µM in data set [1] turned out to be 103 ± 2.21%. The “influence on the cell viability” value in the data set on HEK293 cells is on record as “no influence on the cell viability; also recorded: no effects on the cell viability”. For the same compound, the inhibition at 100 µM with NF-κB pathway (setting [2]) was greater than 50%. Besides, in the data set with NF-κB pathway (setting [3]), the IC50 came to 15.7 µM.
For the compound `Cc1ccc(NCCCc2ccccc2)c(N)c1` [JSH23, reference compound], the “NF-κB Inhibitory Rates (%) (N = 3)” value in the data set on NF-κB pathway (positive control, HEK293/NF-κB-Luc cells induced by LPS, concentration not given) came out at 74.56 ± 1.83%.
For the compound wilfortrine [Compound 14], in the data set on HEK293 cells (HEK293 cells, CCK-8, compound at 100 μM, 48 h incubation), the “Cell Viability (%) (N = 3)” value is recorded as 93.76 ± 1.82%. Besides, the “NF-κB Inhibitory Rates (%) (N = 3)” value in the data set on NF-κB pathway (setting [2]) was determined as 40.20 ± 3.92%.

For the origin of these results see PMC9654820, “Immunosuppressive Sesquiterpene Pyridine Alkaloids from Tripterygium wilfordii Hook. f” (Molecules, 2022).
